Assay results taken from publication PMC8766756, “Insights on Cancer Cell Inhibition, Subcellular Activities, and Kinase Profile of Phenylacetamides Pending 1H-Imidazol-5-One Variants” (Frontiers in Pharmacology, 2022).
Values joined by “and” are separate entries in the source; they are usually repeats but may differ in a detail not shown here. Equal entries are not always repeated.

Tests used:
Assay in all cases: PamChip tyrosine kinase microarray
Type in all cases: biochemical
Conditions in all cases: 0.1 µM, HL60 lysate
ALK (Q9UM73) = target: T1, ALK (Q9UM73) (Homo sapiens, UniProt Q9UM73)
T1 construct: purchased PamGene (PamChip PTK array, Upstream Kinase Analysis)
How it was run: (§1)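 HL60 (AML) cell lysate was spiked with compound at 0.001, 0.01, 0.1, 1, 10 and 50 µM, or 2% v/v DMSO as control, then profiled in technical replicates on a tyrosine kinase peptide array of 196 phosphosites. Kinase activity was inferred from peptide-set changes using an upstream kinase tool.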

DDR1 (Q08345) = target: T2, DDR1 (Q08345) (Homo sapiens, UniProt Q08345)
T2 construct: purchased PamGene (PamChip PTK array, Upstream Kinase Analysis)
How it was run: as §1

FLT1 (P17948) = target: T3, FLT1 (P17948) (Homo sapiens, UniProt P17948)
T3 construct: purchased PamGene (PamChip PTK array, Upstream Kinase Analysis)
How it was run: as §1

Fgr (P09769) = target: T4, Fgr (P09769) (Homo sapiens, UniProt P09769)
T4 construct: purchased PamGene (PamChip PTK array, Upstream Kinase Analysis)
How it was run: as §1

Met (P08581) = target: T5, Met (P08581) (Homo sapiens, UniProt P08581)
T5 construct: purchased PamGene (PamChip PTK array, Upstream Kinase Analysis)
How it was run: as §1

Ret (P07949) = target: T6, Ret (P07949) (Homo sapiens, UniProt P07949)
T6 construct: purchased PamGene (PamChip PTK array, Upstream Kinase Analysis)
How it was run: as §1

Src (P12931) = target: T7, Src (P12931) (Homo sapiens, UniProt P12931)
T7 construct: purchased PamGene (PamChip PTK array, Upstream Kinase Analysis)
How it was run: as §1

Syk (P43405) = target: T8, Syk (P43405) (Homo sapiens, UniProt P43405)
T8 construct: purchased PamGene (PamChip PTK array, Upstream Kinase Analysis)
How it was run: as §1

TEC (P42680) = target: T9, TEC (P42680) (Homo sapiens, UniProt P42680)
T9 construct: purchased PamGene (PamChip PTK array, Upstream Kinase Analysis)
T9 sequence (P42680 1-631): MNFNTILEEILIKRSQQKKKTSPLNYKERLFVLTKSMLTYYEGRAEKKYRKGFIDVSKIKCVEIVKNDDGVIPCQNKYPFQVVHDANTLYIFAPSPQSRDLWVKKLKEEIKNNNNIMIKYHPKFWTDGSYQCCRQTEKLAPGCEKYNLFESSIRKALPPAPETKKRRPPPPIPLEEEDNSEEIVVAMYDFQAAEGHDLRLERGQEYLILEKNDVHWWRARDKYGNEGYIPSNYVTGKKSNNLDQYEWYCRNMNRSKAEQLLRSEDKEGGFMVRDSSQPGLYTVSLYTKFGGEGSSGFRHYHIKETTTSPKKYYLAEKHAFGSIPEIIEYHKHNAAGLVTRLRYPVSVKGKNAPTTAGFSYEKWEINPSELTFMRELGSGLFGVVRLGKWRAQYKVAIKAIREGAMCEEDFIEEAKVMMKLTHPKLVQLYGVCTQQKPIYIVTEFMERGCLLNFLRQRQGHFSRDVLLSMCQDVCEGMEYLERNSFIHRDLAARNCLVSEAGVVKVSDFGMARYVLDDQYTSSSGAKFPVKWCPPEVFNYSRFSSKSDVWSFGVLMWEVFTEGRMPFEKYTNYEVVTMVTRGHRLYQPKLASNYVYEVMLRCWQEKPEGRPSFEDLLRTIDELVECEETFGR
How it was run: as §1

T5 sequence (P08581 25-1390): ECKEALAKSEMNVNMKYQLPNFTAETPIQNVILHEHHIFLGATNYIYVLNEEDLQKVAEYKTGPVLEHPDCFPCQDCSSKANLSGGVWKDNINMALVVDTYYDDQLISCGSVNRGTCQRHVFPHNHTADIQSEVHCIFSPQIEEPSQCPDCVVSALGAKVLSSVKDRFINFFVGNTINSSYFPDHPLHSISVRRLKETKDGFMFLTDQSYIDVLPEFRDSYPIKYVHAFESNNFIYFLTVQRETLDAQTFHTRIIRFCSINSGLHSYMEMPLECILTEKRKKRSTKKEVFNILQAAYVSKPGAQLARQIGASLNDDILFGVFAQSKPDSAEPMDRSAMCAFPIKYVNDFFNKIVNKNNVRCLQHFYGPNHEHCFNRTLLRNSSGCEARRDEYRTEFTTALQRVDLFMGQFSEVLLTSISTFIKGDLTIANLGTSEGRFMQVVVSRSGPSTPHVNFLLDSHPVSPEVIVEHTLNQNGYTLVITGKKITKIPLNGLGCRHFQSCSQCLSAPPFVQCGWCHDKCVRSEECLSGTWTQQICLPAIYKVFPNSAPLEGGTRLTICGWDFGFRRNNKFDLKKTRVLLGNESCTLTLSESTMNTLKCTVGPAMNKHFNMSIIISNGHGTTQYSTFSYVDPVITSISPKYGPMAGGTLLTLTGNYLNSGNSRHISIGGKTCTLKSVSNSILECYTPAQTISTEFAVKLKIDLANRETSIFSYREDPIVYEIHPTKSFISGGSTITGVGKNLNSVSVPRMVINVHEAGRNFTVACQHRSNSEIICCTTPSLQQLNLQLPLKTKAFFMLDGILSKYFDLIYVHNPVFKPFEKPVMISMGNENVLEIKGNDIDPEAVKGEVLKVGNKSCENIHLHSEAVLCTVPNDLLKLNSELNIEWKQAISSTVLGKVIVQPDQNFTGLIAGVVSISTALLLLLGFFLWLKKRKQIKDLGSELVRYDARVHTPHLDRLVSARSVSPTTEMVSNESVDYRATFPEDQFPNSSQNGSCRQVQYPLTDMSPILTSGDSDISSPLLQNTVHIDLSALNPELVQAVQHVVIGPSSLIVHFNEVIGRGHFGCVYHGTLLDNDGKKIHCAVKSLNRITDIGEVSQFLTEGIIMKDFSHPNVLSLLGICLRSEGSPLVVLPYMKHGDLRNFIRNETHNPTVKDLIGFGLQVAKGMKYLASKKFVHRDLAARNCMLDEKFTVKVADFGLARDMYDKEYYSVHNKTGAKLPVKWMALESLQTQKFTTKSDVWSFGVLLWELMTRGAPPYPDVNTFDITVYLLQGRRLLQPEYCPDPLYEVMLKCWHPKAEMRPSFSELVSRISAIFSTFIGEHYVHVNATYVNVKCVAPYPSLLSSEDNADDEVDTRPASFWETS
T1 sequence (Q9UM73 19-1620): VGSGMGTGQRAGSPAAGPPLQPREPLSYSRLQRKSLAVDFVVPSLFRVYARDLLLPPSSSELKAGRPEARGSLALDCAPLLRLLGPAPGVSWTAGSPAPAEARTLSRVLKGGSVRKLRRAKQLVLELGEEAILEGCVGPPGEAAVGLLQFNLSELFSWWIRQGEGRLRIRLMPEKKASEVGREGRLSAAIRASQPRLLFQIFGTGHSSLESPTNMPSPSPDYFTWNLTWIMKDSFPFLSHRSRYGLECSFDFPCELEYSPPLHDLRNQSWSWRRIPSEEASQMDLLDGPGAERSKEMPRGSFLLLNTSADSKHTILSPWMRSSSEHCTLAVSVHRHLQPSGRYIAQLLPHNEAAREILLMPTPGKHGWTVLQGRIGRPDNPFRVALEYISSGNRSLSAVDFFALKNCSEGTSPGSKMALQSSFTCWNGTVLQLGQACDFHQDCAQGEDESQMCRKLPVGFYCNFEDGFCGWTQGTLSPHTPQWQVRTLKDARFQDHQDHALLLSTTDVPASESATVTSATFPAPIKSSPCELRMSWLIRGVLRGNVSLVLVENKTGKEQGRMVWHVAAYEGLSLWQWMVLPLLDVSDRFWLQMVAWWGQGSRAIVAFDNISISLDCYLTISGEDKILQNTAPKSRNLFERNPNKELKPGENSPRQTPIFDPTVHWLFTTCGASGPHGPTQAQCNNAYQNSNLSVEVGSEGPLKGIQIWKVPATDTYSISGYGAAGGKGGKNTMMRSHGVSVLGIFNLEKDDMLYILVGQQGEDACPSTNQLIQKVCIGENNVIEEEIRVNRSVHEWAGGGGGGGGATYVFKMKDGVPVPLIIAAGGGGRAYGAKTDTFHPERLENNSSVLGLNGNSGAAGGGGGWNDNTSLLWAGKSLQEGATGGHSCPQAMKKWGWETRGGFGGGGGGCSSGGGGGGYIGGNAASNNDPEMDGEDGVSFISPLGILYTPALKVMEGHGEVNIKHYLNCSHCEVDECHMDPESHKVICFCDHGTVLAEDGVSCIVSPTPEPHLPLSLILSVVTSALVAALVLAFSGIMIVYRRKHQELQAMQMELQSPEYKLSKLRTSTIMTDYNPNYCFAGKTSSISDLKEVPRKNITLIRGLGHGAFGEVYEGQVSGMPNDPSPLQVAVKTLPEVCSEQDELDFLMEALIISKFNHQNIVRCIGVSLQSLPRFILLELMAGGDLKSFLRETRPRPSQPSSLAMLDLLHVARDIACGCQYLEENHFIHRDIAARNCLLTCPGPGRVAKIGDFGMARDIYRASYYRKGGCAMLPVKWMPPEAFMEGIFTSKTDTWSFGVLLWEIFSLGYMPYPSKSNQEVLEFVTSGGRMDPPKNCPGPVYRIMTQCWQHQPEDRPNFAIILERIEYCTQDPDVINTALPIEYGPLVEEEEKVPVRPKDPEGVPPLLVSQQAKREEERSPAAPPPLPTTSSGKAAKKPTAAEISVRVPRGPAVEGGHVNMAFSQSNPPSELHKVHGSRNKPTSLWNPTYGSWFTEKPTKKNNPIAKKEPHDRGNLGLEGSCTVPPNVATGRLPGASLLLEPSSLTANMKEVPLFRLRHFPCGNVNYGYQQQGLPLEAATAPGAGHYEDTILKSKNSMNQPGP
T6 sequence (P07949 29-1114): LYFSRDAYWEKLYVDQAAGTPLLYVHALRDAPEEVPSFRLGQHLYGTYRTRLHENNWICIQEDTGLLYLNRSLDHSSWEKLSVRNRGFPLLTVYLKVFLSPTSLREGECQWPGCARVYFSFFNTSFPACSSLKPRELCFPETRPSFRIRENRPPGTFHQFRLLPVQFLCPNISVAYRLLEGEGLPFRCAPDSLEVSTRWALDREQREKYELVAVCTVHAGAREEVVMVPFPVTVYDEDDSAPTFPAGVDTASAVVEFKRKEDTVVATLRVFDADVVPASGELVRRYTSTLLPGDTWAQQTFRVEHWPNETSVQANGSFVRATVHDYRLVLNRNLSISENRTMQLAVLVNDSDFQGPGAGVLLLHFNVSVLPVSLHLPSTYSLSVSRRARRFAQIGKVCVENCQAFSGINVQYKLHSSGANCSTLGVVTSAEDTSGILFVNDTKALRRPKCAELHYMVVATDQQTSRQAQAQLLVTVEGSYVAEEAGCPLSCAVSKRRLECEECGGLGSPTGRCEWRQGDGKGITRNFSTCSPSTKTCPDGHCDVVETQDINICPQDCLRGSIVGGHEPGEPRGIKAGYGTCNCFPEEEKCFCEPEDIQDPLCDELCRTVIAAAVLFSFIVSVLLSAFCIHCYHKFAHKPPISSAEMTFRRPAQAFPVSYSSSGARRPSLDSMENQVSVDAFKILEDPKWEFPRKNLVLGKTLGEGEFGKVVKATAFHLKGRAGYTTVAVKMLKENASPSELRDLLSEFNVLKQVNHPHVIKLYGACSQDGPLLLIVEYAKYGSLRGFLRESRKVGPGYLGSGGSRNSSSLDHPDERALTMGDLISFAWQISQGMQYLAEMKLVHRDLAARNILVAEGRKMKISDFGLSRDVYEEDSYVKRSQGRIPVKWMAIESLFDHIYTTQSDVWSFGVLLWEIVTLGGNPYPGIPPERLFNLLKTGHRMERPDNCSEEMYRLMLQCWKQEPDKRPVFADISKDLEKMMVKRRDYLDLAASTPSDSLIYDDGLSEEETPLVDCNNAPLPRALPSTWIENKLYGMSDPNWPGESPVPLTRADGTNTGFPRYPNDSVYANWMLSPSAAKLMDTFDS
T4 sequence (P09769 whole entry): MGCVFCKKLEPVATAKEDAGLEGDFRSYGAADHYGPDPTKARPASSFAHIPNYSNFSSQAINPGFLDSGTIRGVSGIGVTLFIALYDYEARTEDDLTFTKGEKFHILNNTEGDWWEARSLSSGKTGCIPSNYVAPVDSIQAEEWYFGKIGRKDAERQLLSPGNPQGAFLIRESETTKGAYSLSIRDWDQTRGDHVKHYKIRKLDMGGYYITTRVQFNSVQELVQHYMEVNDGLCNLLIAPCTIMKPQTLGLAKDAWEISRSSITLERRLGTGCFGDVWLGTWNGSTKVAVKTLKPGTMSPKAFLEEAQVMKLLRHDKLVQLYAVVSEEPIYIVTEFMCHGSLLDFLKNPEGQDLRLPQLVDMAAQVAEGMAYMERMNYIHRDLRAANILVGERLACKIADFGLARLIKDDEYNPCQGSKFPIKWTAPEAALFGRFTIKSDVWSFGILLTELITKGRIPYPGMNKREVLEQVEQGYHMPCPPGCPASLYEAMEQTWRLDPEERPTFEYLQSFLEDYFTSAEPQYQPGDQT
T7 sequence (P12931 whole entry): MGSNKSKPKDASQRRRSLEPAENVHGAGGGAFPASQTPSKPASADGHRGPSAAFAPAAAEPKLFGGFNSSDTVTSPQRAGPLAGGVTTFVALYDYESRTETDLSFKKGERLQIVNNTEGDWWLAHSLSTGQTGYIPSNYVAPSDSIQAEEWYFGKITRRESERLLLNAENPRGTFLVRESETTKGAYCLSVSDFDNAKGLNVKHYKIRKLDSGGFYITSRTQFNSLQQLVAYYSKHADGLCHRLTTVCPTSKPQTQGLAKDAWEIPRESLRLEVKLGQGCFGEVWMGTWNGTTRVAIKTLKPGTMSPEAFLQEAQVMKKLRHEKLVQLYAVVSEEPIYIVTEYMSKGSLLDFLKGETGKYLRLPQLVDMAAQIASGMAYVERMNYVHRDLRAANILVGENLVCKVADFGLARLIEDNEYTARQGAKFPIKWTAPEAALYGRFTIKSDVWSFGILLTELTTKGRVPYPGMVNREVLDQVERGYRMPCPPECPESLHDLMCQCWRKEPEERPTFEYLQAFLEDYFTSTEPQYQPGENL

COc1ccc(/C=C2\N=C(C)N(c3ccc(CC(=O)NCc4ccccc4)cc3)C2=O)cc1 [Compound 4c, (Z)-N-Benzyl-2-(4-(4-(4-methoxybenzylidene)-2-methyl-5-oxo-4,5-dihydro-1H-imidazol-1-yl)phenyl)acetamide]
Mean Final score (Kinase score) (ALK (Q9UM73)): 2.186
Mean Kinase Statistic (ALK (Q9UM73)): -1.125
Mean Significance Score (ALK (Q9UM73)): 2.048
Mean Specificity Score (ALK (Q9UM73)): 0.1497
Mean Final score (Kinase score) (DDR1 (Q08345)): 2.262
Mean Kinase Statistic (DDR1 (Q08345)): -1.216
Mean Significance Score (DDR1 (Q08345)): 1.955
Mean Specificity Score (DDR1 (Q08345)): 0.3662
Mean Significance Score (FLT1 (P17948)): 2.048
Mean Specificity Score (FLT1 (P17948)): 1.113
Mean Final score (Kinase score) (FLT1 (P17948); listed as KIM-161): 3.23 and 3.228
Mean Final score (Kinase score) (Fgr (P09769)): 2.293
Mean Kinase Statistic (Fgr (P09769)): -1.161
Mean Significance Score (Fgr (P09769)): 1.8658
Mean Specificity Score (Fgr (P09769)): 0.2752
Mean Final score (Kinase score) (Met (P08581)): 2.5
Mean Kinase Statistic (Met (P08581)): -1.184
Mean Significance Score (Met (P08581)): 2.048
Mean Specificity Score (Met (P08581)): 0.4367
Mean Significance Score (Ret (P07949)): 2.048
Mean Specificity Score (Ret (P07949)): 1.108
Mean Final score (Kinase score) (Ret (P07949); listed as KIM-161): 3.14 and 3.143
Mean Significance Score (Src (P12931)): 2.048
Mean Specificity Score (Src (P12931)): 0.05941
Mean Final score (Kinase score) (Src (P12931); listed as KIM-161): 2.16 and 2.164
Mean Final score (Kinase score) (Syk (P43405)): 2.113
Mean Kinase Statistic (Syk (P43405)): -1.091
Mean Significance Score (Syk (P43405)): 2.048
Mean Specificity Score (Syk (P43405)): 0.02997
Mean Final score (Kinase score) (TEC (P42680)): 2.197
Mean Kinase Statistic (TEC (P42680)): -1.125
Mean Significance Score (TEC (P42680)): 2.048
Mean Specificity Score (TEC (P42680)): 0.171
